In US20050256132A1, “Use of ER selective NF-kB inhibitors for the treatment of sepsis” (priority 2003, published 2005):
“Also recorded” adds a separate entry of the source.

What was measured:
[1] = Cecal ligation and puncture model in mice; format: in vivo, BALBc mice
Description: The cecal ligation puncture (“CLP”) procedure was derived from a modification of standard methods previously described (Opal S M, et al., Shock 15(4):285-290, 2001). Female, non-pregnant, specific pathogen-free, Albino BALBc mice (20-25 gm) were used in the experiment. […] Animals were allowed to eat and drink sterile water on an ad libitum basis until 12 h before surgery when food was withheld until after the surgical procedure.
Anesthetized animals (methoxyflurane, Mallinckodt Veterninary Inc., Mundeline, Ill.) had the abdominal skin shaved and a midline, abdominal incision was made. The cecum was exteriorized and distended using intraluminal contents from the colon. The cecum was then ligated below the ileocecal valve and punctured twice using a 23-gauge sterile needle. The cecum was returned to the peritoneal cavity and the transversalis fascia was closed along with the skin incision. The skin incision was covered with topical bacitracin ointment. The animals were given a single […] dose of trovafloxacin (20 mg/kg IM) immediately post-operatively and a 1-mL subcutaneous dose of PBS was given as fluid resuscitation. […] All animals underwent necropsy examination for histological evidence of organ injury, pathology scoring of intestinal mucosa, and quantitative bacteriology.
Differences in survival time between groups were analyzed by Kaplan-Meier survival plots and log-rank testing. Other parameters were measured using a Mann-Whitney U-Test for 2 groups or the Kruskal-Wallis one way analysis of variance for 3 or more groups. A p value of <0.05 was considered significant. All data is presented as mean and standard deviation.

[2] = test system: Pseudomonas aeruginosa 12.4.4; assay: Neutropenic rat model of Pseudomonas sepsis; format: in vivo, Sprague-Dawley rats
Description: The neutropenic rat model of pseudomonas sepsis has been previously described (Opal S M, et al., Shock 15(4):285-290, 2001). The experiments were conducted in specific pathogen-free female, Albino, Sprague-Dawley rats (Charles River Breeding Laboratories, Wilmington, Mass.) weighing 150-200 grams at the beginning of the experiments. Animals were treated with cefamandole (100 mg/kg intramuscularly daily) followed by oral colonization with Pseudomonas aeruginosa 12.4.4 (immunotype 6, A. McManus, San Antonio, Tex.) by orogastric feeding of 10^6 bacterial colony forming units at time 0, 48, and 96 hours.
Cyclophosphamide (Bristol-Myers, Evansville, Ind.) was given intraperitoneally at a dose of 150 mg/kg at time 0, and 50 mg/kg interperitoneally at 72 hours. Animals were followed daily with clinical examination of body temperature using a non-contact, digital, infrared thermometer (Horiba Instruments-Marksen Sciences, Phoenix, Ariz.) and body weight. Compound 67 (50 mg/kg) or corn oil control (n=12 in both groups) was administered orally by orogastric feeding beginning on day 4 after the first dose of cyclophosphamide and continuing for 8 days for the survival study. In an additional set of experiments, compound 1 (50 mg/kg) or control (n=8 in both groups) was administered every other day (day 4, 6, 8) and animals were sacrificed at day 8 for histopathologic studies. The distal 10 centimeters of ileum were resected and used for histopathological examination. The lumen was washed with phosphate buffered saline to remove residual particulate material prior to analysis and fixation. The mucosal surface epithelium was sampled for electromicroscopic studies and placed in gluteraldehyde fixative at the time of sacrifice. A 10 mm segment of ileal tissue was utilized for mucosal mass measurement.
Animals were assessed clinically and pathologically by daily body weight, body temperature, presence of bacteremia, circulating endotoxin levels, and pathologic evidence of damage to the gastrointestinal epithelium and liver by light microscopy and electron microscopy. The investigators performing the animal experiments were not blinded to the treatment assignment; however, an independent pathologist who was unaware of the treatment assignment for each animal performed the light microscopy and electron microscopy interpretation. A pathological injury scale of 0-4 was used to assess the degree of mucosal thinning, ulceration, and disruption.

CK = CK activity in lysate of ERα expressing HAECT-1 cells; format: cell-based, human
Description: (A) The effect of compound 67 on NF-κB mediated luciferase reporter activity in HAECT-1 cells expressing ERα. […] (C) The effect of compound 67 on the human IL-6 promoter luciferase reporter activity in HAECT-1 cells expressing either ERα (squares) or ERβ (diamonds). (D) The remaining lysate from (A) was used to determine CK activity.
HAECT-1 cells (Chadwick C C, et al., Proc Natl Acad Sciences, 2005, 102(7): 2543-2548) were cultured in EGM (GIBCO, Rockville, Md.) containing 10% FBS, 1% GlutaMAX and 0.1% Antimycotic-Antibiotic in Falcon T-175 culture flasks at 34° C. in 5% CO2 and infected for four hours with Ad5-wt-ER virus. After overnight recovery, the cells were infected for 2 hours with the Ad5-3x(NFκB).Luc or Ad5-IL6.Luc virus. Compound 67 and 2 ng/ml IL-1 were added to the cells for 15-20 h and the cell lysate was assayed for luciferase activity and evaluated for CK expression (Stanbio Laboratories, Texas). The values are reported as mean±SEM with n=4 from at least 3 independent experiments.

Listeria monocytogenes = assay: Murine Listeria model, cytokine response analysis; format: in vivo, BALB/c mice; conditions: 10^5 cells/animal iv, 24 hours after challenge, vs control
Description: Corn oil and Tween-stabilized vehicle was used as the control. All other reagents used in the experiments were purchased commercially from Sigma (St. Louis, Mo.) except for the cytokine assays which were purchased from Biosource (Camarillo, Calif.). The cytokines were measured by enzyme-linked immunoassay according to the manufacturer's instructions. The limits of detection of each assay are as follows: tumor necrosis factor α—3 pg/ml, interleukin-6—3 pg/ml, interferon gamma—1 pg/ml, monocyte chemo attractant protein—9 pg/ml. Endotoxin values were measured using a quantitative turbidometric assay (LAL5000) (Associates of Cape Cod, Woods Hole, Mass.).
The listeria model of systemic infection in mice was performed as previously described (Opal S. M., et al., Shock 15(4):285-290, 2001). Compound 67 was administered orally via an orogastric tube to BALB/c mice in an increasing dose schedule of from 1.5 mg/kg to 50 mg/kg. The BALB/c mice were purchased from Charles River Laboratories (Wilmington, Mass.). […]
For the cytokine response analysis, a standard dose of 10^5 cells/animal was administered intravenously, and cytokine measures were performed 24 hours after the intravenous challenge. […] The LD50 was calculated by the method of Reed and Meuch (Opal S. M., et al., J Infect Dis 187:70-76, 2003.).

COc1ccccc1[C@H](c1cccc2ccccc12)[C@@](C)(C#N)C(=O)N1CCC(c2cccc(C(F)(F)F)c2)CC1 [Example 67, (S,S)-3-(2-methoxyphenyl)-2-methyl-3-(1-naphthyl)-2-({4-[3-(trifluoromethyl)phenyl]piperidin-1-yl}carbonyl)propanenitrile]
survival vs vehicle control (Kaplan-Meier) ([1]; 50 mg/kg at 0, 24 and 48 hours after CLP, 7 days, FIG. 5): significant survival advantage; also recorded: significantly greater than control
histopathologic scores of small bowel intestinal mucosa ([1]; 50 mg/kg, p<0.05 vs vehicle control): significant preservation of mucosal integrity
systemic cytokine release and endotoxin levels ([1]; 50 mg/kg, vs vehicle control, p=ns): did not differ
electron microscopy of small intestinal enterocyte architecture, tight junctions, organelle structure ([2]; 50 mg/kg): greater preservation
prevention of lethality (Kaplan-Meier survival) ([2]; 50 mg/kg orally daily from day 4, FIG. 2): highly effective in the prevention of lethality
small bowel mucosal mass ([2]; 50 mg/kg, p<0.01 vs control, FIG. 4B): 76±21 mg/10 cm segment
levels of bacteremia and endotoxemia ([2]; day 6 after first cyclophosphamide dose, FIG. 3): Reduced levels
histopathologic injury score of gastrointestinal mucosa ([2]; scale 0-4, 50 mg/kg, day 8, p=0.02 vs control, FIG. 4A): 0.6±0.1
elevation of CK activity (CK; at 1 μM): approximately 20%
stimulation of CK expression (CK; compared with E2, FIG. 1D): did not stimulate CK expression comparable to E2
cytokine levels (TNF, IL-6, MCP-1, interferon gamma) in bacteremic animals (Listeria monocytogenes): unchanged
